Among the data in patent US20100029657A1, “Bridged, Bicyclic Heterocyclic or Spiro Bicyclic Heterocyclic Derivatives of Pyrazolo[1, 5-A]Pyrimidines, Methods for Preparation and Uses Thereof” (Wyeth, priority 2008, published 2010) are IC50 values, retold here.

Broadly, the IC50 is the concentration needed to halve the response being measured.

The target in this test is T1, Flag/GST-tagged recombinant human B-Raf (Homo sapiens, UniProt P15056).
T1 construct: Flag; GST; made in house; host or cells: Sf9 insect cells (B-Raf); E. coli (MEK1-GST)
T1 sequence (P15056 whole entry): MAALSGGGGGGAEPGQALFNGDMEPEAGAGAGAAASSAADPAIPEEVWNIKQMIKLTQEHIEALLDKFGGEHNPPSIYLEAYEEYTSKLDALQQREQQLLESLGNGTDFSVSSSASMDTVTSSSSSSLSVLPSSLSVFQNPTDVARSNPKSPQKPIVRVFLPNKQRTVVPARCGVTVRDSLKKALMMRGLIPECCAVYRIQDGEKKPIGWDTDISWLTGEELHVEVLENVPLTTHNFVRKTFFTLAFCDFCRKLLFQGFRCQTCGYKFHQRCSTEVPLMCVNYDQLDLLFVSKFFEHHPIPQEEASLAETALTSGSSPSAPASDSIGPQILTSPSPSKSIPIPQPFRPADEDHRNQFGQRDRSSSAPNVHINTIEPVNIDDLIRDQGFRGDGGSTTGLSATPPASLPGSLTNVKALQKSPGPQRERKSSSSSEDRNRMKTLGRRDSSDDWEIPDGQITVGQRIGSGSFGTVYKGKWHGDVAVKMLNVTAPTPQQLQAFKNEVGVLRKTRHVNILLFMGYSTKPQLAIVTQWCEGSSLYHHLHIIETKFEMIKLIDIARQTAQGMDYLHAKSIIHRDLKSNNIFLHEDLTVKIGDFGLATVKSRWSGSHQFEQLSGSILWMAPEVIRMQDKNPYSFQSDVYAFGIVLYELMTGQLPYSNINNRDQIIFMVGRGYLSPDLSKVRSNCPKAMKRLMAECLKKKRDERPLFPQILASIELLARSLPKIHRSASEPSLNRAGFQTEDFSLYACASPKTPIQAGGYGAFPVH
The test can be described thus: B-Raf kinase assay (phosphorylation of GST-MEK1, phospho-MEK1 antibody/Europium detection). It counts as biochemical. The conditions noted are these: B-Raf IC50 Data for compounds of Formula A; read-out: Mean IC50. The method, boiled down: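 Percent inhibition was calculated at each compound concentration from Europium time-resolved fluorescence (anti-phospho-MEK1, then Eu-conjugated anti-rabbit) after GST capture. The upstream kinase step used GST-MEK1 with 0.2 nM B-Raf for 45 min at room temperature in MOPS buffer, pH 7.2. It was started with a cocktail of 200 μM ATP and 40 mM MgCl2.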
Turning to `Cc1cc(N2C[C@@H]3C[C@H]2CN3)ccc1-c1ccnc2c(-c3ccc(F)c4[nH]ncc34)c(-c3ccncc3)nn12` [Example 135, 7-{4-[(1S,4S)-2,5-diazabicyclo[2.2.1]hept-2-yl]-2-methylphenyl}-3-(7-fluoro-1H-indazol-4-yl)-2-pyridin-4-ylpyrazolo[1,5-a]pyrimidine], the IC50 is under 0.3 nM.
The result for `Cc1cc(N2C[C@@H]3C[C@H]2CN3C)ccc1-c1ccnc2c(-c3ccc(F)c4[nH]ncc34)c(-c3ccncc3)nn12` [Example 136, 3-(7-fluoro-1H-indazol-4-yl)-7-{2-methyl-4-[(1S,4S)-5-methyl-2,5-diazabicyclo[2.2.1]hept-2-yl]phenyl}-2-pyridin-4-ylpyrazolo[1,5-a]pyrimidine] reads under 0.3 nM; that for `Fc1ccc(-c2c(-c3ccncc3)nn3c(C4CC5CCC(C4)N5)ccnc23)c2cn[nH]c12` (centres unmarked) [Example 137, 7-(8-azabicyclo[3.2.1]oct-3-yl)-3-(7-fluoro-1H-indazol-4-yl)-2-pyridin-4-ylpyrazolo[1,5-a]pyrimidine], 3.8 nM.
With `N#CCN1C2CCC1CC(c1ccnc3c(-c4ccc(F)c5[nH]ncc45)c(-c4ccncc4)nn13)C2` (centres unmarked) [Example 138, {3-[3-(7-fluoro-1H-indazol-4-yl)-2-pyridin-4-ylpyrazolo[1,5-a]pyrimidin-7-yl]-8-azabicyclo[3.2.1]oct-8-yl}acetonitrile] the figure was 0.4 nM.
The result for `Clc1ccc(-c2c(-c3ccncc3)nn3ccc(-c4ccc(N5C[C@@H]6C[C@H]5CN6)cc4)nc23)c2cn[nH]c12` [Example 139, 3-(7-chloro-1H-indazol-4-yl)-5-{4-[(1S,4S)-2,5-diazabicyclo[2.2.1]hept-2-yl]phenyl}-2-pyridin-4-ylpyrazolo[1,5-a]pyrimidine] reads 1.2 nM.
`CN1C2CCC1CN(c1ccc(-c3ccnc4c(-c5cccc6[nH]ncc56)c(-c5ccncc5)nn34)cn1)C2` [Example 140, 3-(1H-indazol-4-yl)-7-[6-(8-methyl-3,8-diazabicyclo[3.2.1]oct-3-yl)pyridin-3-yl]-2-pyridin-4-ylpyrazolo[1,5-a]pyrimidine]: the concentration for half-maximal inhibition (IC50) worked out at 1.2 nM.
With `CN1C[C@@H]2C[C@H]1CN2c1ccc(-c2ccnc3c(-c4ccc(Cl)c5[nH]ncc45)c(-c4ccncc4)nn23)cc1` [Example 141, 3-(7-chloro-1H-indazol-4-yl)-7-{4-[(1S,4S)-5-methyl-2,5-diazabicyclo[2.2.1]hept-2-yl]phenyl}-2-pyridin-4-ylpyrazolo[1,5-a]pyrimidine] the figure was 2.3 nM; with `c1cc(-c2c(-c3ccncc3)nn3c(C4CCC5(CC4)OCCO5)ccnc23)c2cn[nH]c2c1` [Example 142, 7-(1,4-dioxaspiro[4.5]dec-8-yl)-3-(1H-indazol-4-yl)-2-pyridin-4-ylpyrazolo[1,5-a]pyrimidine], 2.2 nM.
Turning to `CN1C[C@@H]2CC[C@H]1CN2c1ccc(-c2ccnc3c(-c4cccc5[nH]ncc45)c(-c4ccncc4)nn23)cc1` [Example 143, 3-(1H-indazol-4-yl)-7-{4-[(1S,4S)-5-methyl-2,5-diazabicyclo[2.2.2]oct-2-yl]phenyl}-2-pyridin-4-ylpyrazolo[1,5-a]pyrimidine], the IC50 was 0.7 nM.
Turning to `c1cc(-c2c(-c3ccncc3)nn3c(-c4ccc(N5C[C@@H]6CC[C@H]5CN6)cc4)ccnc23)c2cn[nH]c2c1` [Example 144, 7-{4-[(1S,4S)-2,5-diazabicyclo[2.2.2]oct-2-yl]phenyl}-3-(1H-indazol-4-yl)-2-pyridin-4-ylpyrazolo[1,5-a]pyrimidine], the IC50 came to 0.6 nM.
For the molecule `Fc1cc(F)c(-c2ccnc3c(-c4cccc5[nH]ncc45)c(-c4ccncc4)nn23)c(N2C[C@@H]3C[C@H]2CN3)c1` [Example 145, 7-{2-[(1S,4S)-2,5-diazabicyclo[2.2.1]hept-2-yl]-4,6-difluorophenyl}-3-(1H-indazol-4-yl)-2-pyridin-4-ylpyrazolo[1,5-a]pyrimidine], the 50% inhibitory concentration (IC50) amounted to 74.4 nM.
For the molecule `CN(C)c1cc(N2C[C@@H]3C[C@H]2CN3)ccc1-c1ccnc2c(-c3cccc4[nH]ncc34)c(-c3ccncc3)nn12` [Example 146, 5-[(1S,4S)-2,5-diazabicyclo[2.2.1]hept-2-yl]-2-[3-(1H-indazol-4-yl)-2-pyridin-4-ylpyrazolo[1,5-a]pyrimidin-7-yl]-N,N-dimethylaniline], the IC50 stood at 6.3 nM.
The result for `CN1C[C@@H]2C[C@H]1CN2c1cc(F)cc(F)c1-c1ccnc2c(-c3cccc4[nH]ncc34)c(-c3ccncc3)nn12` [Example 147, 7-{2,4-difluoro-6-[(1S,4S)-5-methyl-2,5-diazabicyclo[2.2.1]hept-2-yl]phenyl}-3-(1H-indazol-4-yl)-2-pyridin-4-ylpyrazolo[1,5-a]pyrimidine] reads over 100 nM; that for `CN(C)c1cc(N2C[C@@H]3C[C@H]2CN3C)ccc1-c1ccnc2c(-c3cccc4[nH]ncc34)c(-c3ccncc3)nn12` [Example 148, 2-[3-(1H-indazol-4-yl)-2-pyridin-4-ylpyrazolo[1,5-a]pyrimidin-7-yl]-N,N-dimethyl-5-[(1S,4S)-5-methyl-2,5-diazabicyclo[2.2.1]hept-2-yl]aniline], 7.3 nM.
With `c1cc(-c2c(-c3ccncc3)nn3c2nccc3[C@H]2CC[C@@H](N3C[C@@H]4C[C@H]3CN4)CC2)c2cn[nH]c2c1` [Example 149, 7-{cis-4-[(1S,4S)-2,5-diazabicyclo[2.2.1]hept-2-yl]cyclohexyl}-3-(1H-indazol-4-yl)-2-pyridin-4-ylpyrazolo[1,5-a]pyrimidine] the figure was 3.2 nM.
The result for `c1cc(-c2c(-c3ccncc3)nn3c2nccc3[C@H]2CC[C@@H](N3C[C@@H]4C[C@H]3CO4)CC2)c2cn[nH]c2c1` [Example 154, 3-(1H-indazol-4-yl)-7-{cis-4-[(1S,4S)-2-oxa-5-azabicyclo[2.2.1]hept-5-yl]cyclohexyl}-2-pyridin-4-ylpyrazolo[1,5-a]pyrimidine] reads 11.4 nM; that for `c1cc(-c2c(-c3ccncc3)nn3c2nccc3[C@H]2CC[C@H](N3C[C@@H]4C[C@H]3CO4)CC2)c2cn[nH]c2c1` [Example 155, 3-(1H-indazol-4-yl)-7-{trans-4-[(1S,4S)-2-oxa-5-azabicyclo[2.2.1]hept-5-yl]cyclohexyl}-2-pyridin-4-ylpyrazolo[1,5-a]pyrimidine], 3.5 nM; that for `c1cc(-c2c(-c3ccncc3)nn3c2nccc3[C@H]2CC[C@H](N3C[C@@H]4C[C@H]3CN4)CC2)c2cn[nH]c2c1` [Example 156, 7-{trans-4-[(1S,4S)-2,5-diazabicyclo[2.2.1]hept-2-yl]cyclohexyl}-3-(1H-indazol-4-yl)-2-pyridin-4-ylpyrazolo[1,5-a]pyrimidine], 0.6 nM.
For the molecule `FC(F)(F)c1cc(-c2ccnc3c(-c4cccc5[nH]ncc45)c(-c4ccncc4)nn23)ccc1N1C[C@@H]2C[C@H]1CN2` [Example 157, 7-{4-[(1S,4S)-2,5-diazabicyclo[2.2.1]hept-2-yl]-3-(trifluoromethyl)phenyl}-3-(1H-indazol-4-yl)-2-pyridin-4-ylpyrazolo[1,5-a]pyrimidine], the IC50 is 1.2 nM.
On to `c1cc(-c2c(-c3ccncc3)nn3c(-c4ccc(N5C[C@@H]6C[C@H]5CN6)c5ccccc45)ccnc23)c2cn[nH]c2c1` [Example 158, 7-{4-[(1S,4S)-2,5-diazabicyclo[2.2.1]hept-2-yl]-1-naphthyl}-3-(1H-indazol-4-yl)-2-pyridin-4-ylpyrazolo[1,5-a]pyrimidine], for which the half-maximal inhibitory concentration (IC50) is 20.9 nM.
With `CN1C[C@@H]2C[C@H]1CN2c1ccc(-c2ccnc3c(-c4cccc5[nH]ncc45)c(-c4ccncc4)nn23)cc1C(F)(F)F` [Example 159, 3-(1H-indazol-4-yl)-7-{4-[(1S,4S)-5-methyl-2,5-diazabicyclo[2.2.1]hept-2-yl]-3-(trifluoromethyl)phenyl}-2-pyridin-4-ylpyrazolo[1,5-a]pyrimidine] the figure was 2 nM; with `CN1C[C@@H]2C[C@H]1CN2c1ccc(-c2ccnc3c(-c4cccc5[nH]ncc45)c(-c4ccncc4)nn23)c2ccccc12` [Example 160, 3-(1H-indazol-4-yl)-7-{4-[(1S,4S)-5-methyl-2,5-diazabicyclo[2.2.1]hept-2-yl]-1-naphthyl}-2-pyridin-4-ylpyrazolo[1,5-a]pyrimidine], 25.3 nM.
The result for `Fc1cc(-c2ccnc3c(-c4cccc5[nH]ncc45)c(-c4ccncc4)nn23)cc(F)c1N1C[C@@H]2C[C@H]1CN2` [Example 161, 7-{4-[(1S,4S)-2,5-diazabicyclo[2.2.1]hept-2-yl]-3,5-difluorophenyl}-3-(1H-indazol-4-yl)-2-pyridin-4-ylpyrazolo[1,5-a]pyrimidine] reads 2.7 nM; that for `Fc1c(-c2ccnc3c(-c4cccc5[nH]ncc45)c(-c4ccncc4)nn23)ccc(N2C[C@@H]3C[C@H]2CN3)c1F` [Example 162, 7-{4-[(1S,4S)-2,5-diazabicyclo[2.2.1]hept-2-yl]-2,3-difluorophenyl}-3-(1H-indazol-4-yl)-2-pyridin-4-ylpyrazolo[1,5-a]pyrimidine], 0.5 nM.
Take `Fc1cc(N2C[C@@H]3C[C@H]2CN3)c(F)cc1-c1ccnc2c(-c3cccc4[nH]ncc34)c(-c3ccncc3)nn12` [Example 163, 7-{4-[(1S,4S)-2,5-diazabicyclo[2.2.1]hept-2-yl]-2,5-difluorophenyl}-3-(1H-indazol-4-yl)-2-pyridin-4-ylpyrazolo[1,5-a]pyrimidine]: the IC50 is under 0.3 nM.
With `CN1C[C@@H]2C[C@H]1CN2c1c(F)cc(-c2ccnc3c(-c4cccc5[nH]ncc45)c(-c4ccncc4)nn23)cc1F` [Example 164, 7-{3,5-difluoro-4-[(1S,4S)-5-methyl-2,5-diazabicyclo[2.2.1]hept-2-yl]phenyl}-3-(1H-indazol-4-yl)-2-pyridin-4-ylpyrazolo[1,5-a]pyrimidine] the figure was 9.6 nM.
